No end group written: not given here.
Molecular target: T1, PTHR1 (Homo sapiens, UniProt Q03431)
T1 sequence (Q03431 27-593): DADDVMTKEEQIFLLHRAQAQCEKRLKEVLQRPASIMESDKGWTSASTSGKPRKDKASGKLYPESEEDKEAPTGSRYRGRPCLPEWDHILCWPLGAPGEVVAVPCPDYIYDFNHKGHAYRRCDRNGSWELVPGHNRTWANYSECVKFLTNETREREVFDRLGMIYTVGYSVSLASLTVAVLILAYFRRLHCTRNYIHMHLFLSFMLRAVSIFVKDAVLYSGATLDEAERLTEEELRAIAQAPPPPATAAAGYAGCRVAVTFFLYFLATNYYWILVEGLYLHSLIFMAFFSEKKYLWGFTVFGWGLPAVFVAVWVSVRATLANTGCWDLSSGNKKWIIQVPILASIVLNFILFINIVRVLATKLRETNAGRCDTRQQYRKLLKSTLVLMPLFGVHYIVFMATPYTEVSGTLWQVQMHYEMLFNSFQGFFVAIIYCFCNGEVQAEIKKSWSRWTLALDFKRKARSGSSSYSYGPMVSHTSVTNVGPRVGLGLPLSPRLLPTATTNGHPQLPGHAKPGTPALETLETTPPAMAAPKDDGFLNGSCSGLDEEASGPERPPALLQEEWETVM
Assay: Inhibition of PTH-induced PTHR1 cAMP signaling by bPTH(7-34) analogs
Settings: Table 18; [Inhibitor] = 1 μM

| Substance | EC50(+)inhibitor/EC50(−)inhibitor |
| --- | --- |
| FMHNLWKHLSSMERVEWLRKKLQDVHNF-NH2 [bPTH(7-34)dTrp12, reference compound] | 60.12 |
| FMHNLWKWLSSMERVEWLRKKLQDVHNF-NH2 [D6 bPTH(7-34) dTrp12] | 16.49 |
| LMHNLGKHLNSMERVEWLRKKLQDVHNF-NH2 [hPTH(7-34), reference compound] | 1.60 |
| XMHNLWKWLSSMERVEWLRKKLQDVHNF-NH2 [D6 bPTH(7-34) dTrp12 ACPC7] | 4.38 |
| XMHNLWKXLSSXERVZWLRZKLQXVHNX-NH2 [FCycD6 bPTH(7-34) dTrp12 ACPC7] | 3.50 |
